Measurements from paper PMC10461224, “Development of an Affinity-Based Probe to Profile Endogenous Human Adenosine A3 Receptor Expression” (Journal of Medicinal Chemistry, 2023).

Assays:
hA3AR [1] = biological target: T1, hA3AR (Homo sapiens, UniProt P0DMS8); assay: SDS-PAGE labeling on live CHO cells; assay type: cell-based; details: 50 nM, 1 h, 37 °C; signal reduced by PSB-11
T1 construct: expressed in transfected cells; host or cells: CHO cells (CHOhA3AR), gift of Prof; K.N. Klotz, University of Würzburg; used as membrane fractions or live cells
T1 sequence (P0DMS8 1-318): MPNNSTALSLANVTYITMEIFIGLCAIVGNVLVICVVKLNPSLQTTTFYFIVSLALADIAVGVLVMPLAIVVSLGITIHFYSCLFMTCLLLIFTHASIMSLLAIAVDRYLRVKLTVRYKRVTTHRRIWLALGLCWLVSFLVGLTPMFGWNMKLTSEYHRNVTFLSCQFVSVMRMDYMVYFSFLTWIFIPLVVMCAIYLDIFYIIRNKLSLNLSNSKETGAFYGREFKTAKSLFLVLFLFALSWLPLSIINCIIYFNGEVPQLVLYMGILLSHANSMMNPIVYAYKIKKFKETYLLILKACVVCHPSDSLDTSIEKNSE
Procedure: CHOhA3AR and CHO-K1 cells were cultured as mentioned above. Cells were grown to ∼90% confluency in 10 cm φ plates. 10 plates were used per condition per experiment. The medium was removed, and the competing ligand (PSB-11, unless noted otherwise) in medium (final concentration: 1 μM) was added. Cells were incubated for 1 h (37 °C, 5% CO2). The medium was removed, and the affinity-based probe (final concentration: 50 nM in medium) was added. The cells were incubated for 1 h (37 °C, 5% CO2) and washed with PBS to get rid of all the non-bound probes. Subsequently, the membranes were prepared and collected using the procedure as described above. Membrane aliquots were diluted to a concentration of 1 μg/μL, and 20 μL was taken per sample. PNGase (0.5 μL, 5 U) or MilliQ was added, and the samples were incubated for 1 h at rt. Next, the click mix was freshly prepared by adding together 5 parts 100 mM CuSO4 in MilliQ, 3 parts 1 M NaAsc in MilliQ, 1 part 100 mM THPTA in MilliQ, and 1 part 100 μM Cy5-N3 in DMSO. […] In-gel fluorescence was measured on a Bio-Rad Universal Hood III using Cy3 (605/50 filter) or Cy5 (695/55 filter) settings. […]
Gel images were analyzed using Image Lab software version 6.0.1 (Bio-Rad). Quantification was done in the following manner: the area under the curve (AUC) of the bands was selected using the ‘Lane Profile’ tab and the adjusted volumes were taken. […]

hA3AR [2] = biological target: T1, hA3AR; assay: Confocal microscopy labeling on CHO cells, click to TAMRA-N3; assay type: cell-based; details: 50 nM, 60 min, versus vehicle, PSB-11 pre-incubation and CHO-K1
Procedure: CHOhA3AR and CHO-K1 cells were cultured in a 96-well plate. Upon reaching a confluency of about 90%, the medium was replaced by medium containing PSB-11 (final concentration: 1 μM) or 1% DMSO (control) and the cells were pre-incubated for 30 min (37 °C and 5% CO2). The medium was then replaced with medium containing 9 (final concentration: 50 nM) or 1% DMSO (vehicle), and the cells were incubated for 60 min (37 °C and 5% CO2). The cells were washed with PBS to remove unbound probe and afterward fixed using a 4% PFA in 10% formalin solution (15 min, rt). The remaining fixative was removed by washing with PBS and subsequently with 20 mM glycine in PBS. The cells were permeabilized by incubation in 0.1% saponin in PBS (10 min, rt). Remaining saponin was removed by a PBS wash, and the cells were stored at 4 °C until further usage. At the day of imaging, PBS was removed and the cells were incubated for 1 h in freshly prepared click mix (100 μL 100 mM CuSO4 in MilliQ, 100 μL 1 M NaAsc in MilliQ, 100 μL […] in MilliQ, 9.66 mL HEPES pH 7.4, and 40 μL 1 mM TAMRA-N3 in DMSO, added in the respective order). […]
CellProfiler (version 2.2.0) was used to create a binary image of the DAPI channel and to propagate the cytoplasmic area based on the DAPI binary. An overlay of the binary cytoplasm/TAMRA channel was generated to quantify per segmented pixel the TAMRA intensity. […]

Structure (SMILES): C#CCOc1ccn2c(c1)nc1c2c(=O)n(CCC)c(=O)n1CCCNC(=O)c1ccc(S(=O)(=O)F)cc1 [compound 9, 4-((3-(2,4-Dioxo-8-(prop-2-yn-1-yloxy)-3-propyl-3,4-dihydropyrido[2,1-f]purin-1(2H)-yl)propyl)carbamoyl)benzenesulfonyl fluoride]
- labeling of hA3AR on live CHO cells (SDS-PAGE) (hA3AR [1]): binds and labels the hA3AR on live cells
- integrated TAMRA fluorescence intensity (hA3AR [2]): significant increase in intensity
